Counter-ions that a name gives are not always drawn. The source made the active and inactive calls.
How the values were obtained:
[1] = target: T1, Mannose-6-phosphate isomerase (Homo sapiens, UniProt P34949); assay: PMI enzyme inhibitors, confirmation, biochemical, fluorescence intensity (AID 1535)
T1 sequence (P34949 whole entry): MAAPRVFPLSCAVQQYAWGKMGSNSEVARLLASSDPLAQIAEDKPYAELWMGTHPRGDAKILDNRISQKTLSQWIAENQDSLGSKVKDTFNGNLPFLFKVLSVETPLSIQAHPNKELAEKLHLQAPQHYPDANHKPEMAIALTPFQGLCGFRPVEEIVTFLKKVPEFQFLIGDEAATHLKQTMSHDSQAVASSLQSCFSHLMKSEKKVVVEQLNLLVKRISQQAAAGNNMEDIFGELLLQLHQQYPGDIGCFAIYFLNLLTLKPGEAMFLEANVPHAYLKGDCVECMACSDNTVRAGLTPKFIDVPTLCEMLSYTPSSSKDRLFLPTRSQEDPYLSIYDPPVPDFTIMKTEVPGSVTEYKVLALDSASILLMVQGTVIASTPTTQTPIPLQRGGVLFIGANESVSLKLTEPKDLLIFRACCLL

[2] = target: UDP-galactopyranose mutase (Mycobacterium tuberculosis, UniProt P9WIQ1); assay: Inhibitors of Mycobacterium tuberculosis UDP-galactopyranose mutase (UGM) enzyme Measured in Biochemical System Using Plate Reader - 2105-02_Inhibitor_Dose_CherryPick_Activity. [Related pubchem assays (depositor defined):AID504439]
Sequence of UDP-galactopyranose mutase (P9WIQ1 whole entry): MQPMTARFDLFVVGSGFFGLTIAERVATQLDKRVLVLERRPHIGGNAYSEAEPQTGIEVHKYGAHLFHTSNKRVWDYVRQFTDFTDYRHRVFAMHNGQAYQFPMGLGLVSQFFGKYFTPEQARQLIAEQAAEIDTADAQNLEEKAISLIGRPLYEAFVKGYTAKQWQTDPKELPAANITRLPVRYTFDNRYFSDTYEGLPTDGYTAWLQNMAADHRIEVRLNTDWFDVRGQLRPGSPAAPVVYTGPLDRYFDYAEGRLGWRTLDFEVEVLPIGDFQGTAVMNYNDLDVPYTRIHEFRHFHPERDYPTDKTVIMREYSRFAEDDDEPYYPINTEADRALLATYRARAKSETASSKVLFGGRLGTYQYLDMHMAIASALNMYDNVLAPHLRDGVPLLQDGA

[3] = growth induction of Burl-1 ts yeast mutant, dose response, counter-screen for SUMOylation pathway inhibitor project, whole organism, S. cerevisiae, luminescence (AID 463199); type: functional
[4] = target: FAD-linked sulfhydryl oxidase ALR (Homo sapiens, UniProt P55789); assay: inhibitors of human ALR sulfhydryl oxidase, dose response, biochemical, H2O2 detection, luminescence, cherry-pick (AID 493248)
Sequence of FAD-linked sulfhydryl oxidase ALR (P55789 whole entry): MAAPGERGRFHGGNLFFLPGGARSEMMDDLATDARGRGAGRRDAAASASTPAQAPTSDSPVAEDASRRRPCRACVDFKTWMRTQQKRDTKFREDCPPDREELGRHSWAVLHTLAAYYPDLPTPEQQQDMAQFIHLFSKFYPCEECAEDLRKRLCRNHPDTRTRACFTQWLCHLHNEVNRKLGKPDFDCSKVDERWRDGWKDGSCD

[5] = target: Dual specificity protein kinase CLK1 (Homo sapiens, UniProt P49759); assay: CLK1 kinase inhibitors, off-target check, dose response, selectivity assay for Dyrk1A inhibitor project, biochemical, cherry-picked samples (AID 588811)
Sequence of Dual specificity protein kinase CLK1 (P49759 whole entry): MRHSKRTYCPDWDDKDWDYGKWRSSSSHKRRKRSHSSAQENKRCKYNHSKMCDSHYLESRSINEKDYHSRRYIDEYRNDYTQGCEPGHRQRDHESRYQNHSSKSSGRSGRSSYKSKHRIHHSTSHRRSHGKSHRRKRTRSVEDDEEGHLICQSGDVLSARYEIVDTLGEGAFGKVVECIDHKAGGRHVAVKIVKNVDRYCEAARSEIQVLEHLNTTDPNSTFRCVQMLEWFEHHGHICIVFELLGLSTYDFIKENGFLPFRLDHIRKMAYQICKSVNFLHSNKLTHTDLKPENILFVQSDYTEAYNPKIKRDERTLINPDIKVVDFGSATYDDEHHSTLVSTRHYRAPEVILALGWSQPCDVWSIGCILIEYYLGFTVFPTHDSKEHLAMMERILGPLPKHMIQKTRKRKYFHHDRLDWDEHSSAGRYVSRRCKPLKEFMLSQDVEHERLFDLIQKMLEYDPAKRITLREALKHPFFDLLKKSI

HEK293 [6] = assay: cells; type: functional, cell-based; conditions: Homo sapiens
[7] = target: Nuclear receptor subfamily 0 group B member 1 (Homo sapiens, UniProt P51843); assay: Luminescence-based cell-based high throughput dose response assay for inhibitors of the orphan nuclear receptor subfamily 0, group B, member 1 (DAX1; NR0B1). [Related pubchem assays (depositor defined):AID504766, AID504790]; type: functional
[8] = target: Voltage-gated inwardly rectifying potassium channel KCNH2 (Homo sapiens, UniProt Q12809); conditions: Potency;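 further: confirmatory quantitative high-throughput screen measuring inhibition of hERG channel activity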
Sequence of Voltage-gated inwardly rectifying potassium channel KCNH2 (Q12809 whole entry): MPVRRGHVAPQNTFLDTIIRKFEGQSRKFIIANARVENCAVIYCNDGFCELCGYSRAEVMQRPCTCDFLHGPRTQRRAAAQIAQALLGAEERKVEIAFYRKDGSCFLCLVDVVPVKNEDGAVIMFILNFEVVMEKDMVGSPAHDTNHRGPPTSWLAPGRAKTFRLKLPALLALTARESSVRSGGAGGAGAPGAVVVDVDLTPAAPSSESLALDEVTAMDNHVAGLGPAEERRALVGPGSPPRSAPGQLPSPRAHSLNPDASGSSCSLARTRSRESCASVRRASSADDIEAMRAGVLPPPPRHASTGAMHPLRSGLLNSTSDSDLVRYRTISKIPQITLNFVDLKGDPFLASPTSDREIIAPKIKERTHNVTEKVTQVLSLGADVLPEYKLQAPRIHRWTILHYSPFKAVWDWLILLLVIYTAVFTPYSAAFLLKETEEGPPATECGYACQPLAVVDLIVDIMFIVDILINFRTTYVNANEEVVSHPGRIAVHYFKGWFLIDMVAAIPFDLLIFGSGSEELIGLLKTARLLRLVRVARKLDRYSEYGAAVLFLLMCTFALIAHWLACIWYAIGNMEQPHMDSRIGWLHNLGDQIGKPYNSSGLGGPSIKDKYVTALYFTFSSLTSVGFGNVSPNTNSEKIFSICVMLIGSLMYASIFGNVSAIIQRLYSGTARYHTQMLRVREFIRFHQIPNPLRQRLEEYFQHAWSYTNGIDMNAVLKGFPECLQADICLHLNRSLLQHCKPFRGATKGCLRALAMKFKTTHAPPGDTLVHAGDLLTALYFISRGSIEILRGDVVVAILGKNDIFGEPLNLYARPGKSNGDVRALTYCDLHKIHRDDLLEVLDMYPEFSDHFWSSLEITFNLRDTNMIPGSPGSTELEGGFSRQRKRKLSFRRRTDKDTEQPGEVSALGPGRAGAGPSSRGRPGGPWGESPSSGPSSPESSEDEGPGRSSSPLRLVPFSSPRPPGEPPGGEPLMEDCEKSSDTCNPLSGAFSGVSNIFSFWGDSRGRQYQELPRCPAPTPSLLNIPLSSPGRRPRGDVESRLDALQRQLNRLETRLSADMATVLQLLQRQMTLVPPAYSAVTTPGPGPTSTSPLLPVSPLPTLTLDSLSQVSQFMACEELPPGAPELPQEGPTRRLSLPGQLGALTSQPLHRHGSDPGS

[9] = target: T2, Corticotropin-releasing factor receptor 2/Corticotropin-releasing factor-binding protein (Homo sapiens, UniProt P24387+Q13324); assay: Dose Response confirmation of uHTS hits for small molecule antagonists of the CRF-binding protein and CRF-R2 receptor complex.; type: functional; conditions: read-out: IC50_Mean
T2 sequence (Q13324 whole entry): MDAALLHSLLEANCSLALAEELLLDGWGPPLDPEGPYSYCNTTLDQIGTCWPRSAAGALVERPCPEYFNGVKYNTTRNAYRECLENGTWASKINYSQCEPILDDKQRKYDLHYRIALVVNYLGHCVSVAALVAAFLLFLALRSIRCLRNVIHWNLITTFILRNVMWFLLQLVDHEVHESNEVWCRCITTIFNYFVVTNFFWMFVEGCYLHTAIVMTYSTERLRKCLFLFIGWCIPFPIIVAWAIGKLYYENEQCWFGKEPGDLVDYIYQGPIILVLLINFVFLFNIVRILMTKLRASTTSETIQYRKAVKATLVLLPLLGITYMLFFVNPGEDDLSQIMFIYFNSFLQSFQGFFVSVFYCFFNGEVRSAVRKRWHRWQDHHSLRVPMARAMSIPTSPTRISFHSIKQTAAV
T2 sequence (P24387 whole entry): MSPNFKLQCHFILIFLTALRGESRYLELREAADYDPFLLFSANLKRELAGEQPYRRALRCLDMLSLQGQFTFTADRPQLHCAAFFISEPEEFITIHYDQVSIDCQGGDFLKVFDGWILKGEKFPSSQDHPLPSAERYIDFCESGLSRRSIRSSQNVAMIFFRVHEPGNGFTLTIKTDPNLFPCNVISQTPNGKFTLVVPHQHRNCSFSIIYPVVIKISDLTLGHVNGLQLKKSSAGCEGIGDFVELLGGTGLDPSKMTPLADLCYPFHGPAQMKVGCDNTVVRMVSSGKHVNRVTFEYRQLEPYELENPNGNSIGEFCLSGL

[10] = target: T2, Corticotropin-releasing factor receptor 2/Corticotropin-releasing factor-binding protein; assay: activators of CRF receptor 2 with binding protein – uHTS hits, confirmation (AID 602473); type: functional; conditions: read-out: EC50_Mean
[11] = target: T3, Serine/threonine-protein phosphatase (Candida dubliniensis (strain CD36 / CBS 7987 / NCPF 3949 / NRRLY-17841) (Yeast), UniProt B9W6M3); assay: Fluorescence Cell-Based Secondary Assay to Identify Inhibitors of Calcineurin. [Related pubchem assays (depositor defined):AID1979, AID2007]; type: functional
T3 sequence (B9W6M3 whole entry): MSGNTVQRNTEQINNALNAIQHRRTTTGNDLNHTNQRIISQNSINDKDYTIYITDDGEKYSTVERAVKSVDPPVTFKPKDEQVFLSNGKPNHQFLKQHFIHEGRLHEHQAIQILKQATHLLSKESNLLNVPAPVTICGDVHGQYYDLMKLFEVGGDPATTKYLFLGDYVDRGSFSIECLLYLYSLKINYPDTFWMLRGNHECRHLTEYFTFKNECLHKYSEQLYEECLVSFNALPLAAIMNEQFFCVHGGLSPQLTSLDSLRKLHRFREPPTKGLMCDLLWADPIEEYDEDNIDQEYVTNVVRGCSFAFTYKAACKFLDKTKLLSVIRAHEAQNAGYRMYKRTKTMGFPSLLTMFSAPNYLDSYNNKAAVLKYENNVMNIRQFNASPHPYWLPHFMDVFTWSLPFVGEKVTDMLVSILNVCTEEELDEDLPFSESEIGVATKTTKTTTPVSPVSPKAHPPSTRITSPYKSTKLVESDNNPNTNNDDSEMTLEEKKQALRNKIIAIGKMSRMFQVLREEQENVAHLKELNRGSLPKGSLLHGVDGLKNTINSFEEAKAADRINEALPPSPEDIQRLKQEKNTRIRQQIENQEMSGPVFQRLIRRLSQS

Trypsin = Trypsin (Sus scrofa, UniProt P00761); assay: porcine trypsin inhibitors, dose response, selectivity assay for Rce1 protease inhibitor project, biochemical, quenched peptide fluorescence, cherry-pick (AID 488789)
Sequence of Trypsin (P00761 whole entry): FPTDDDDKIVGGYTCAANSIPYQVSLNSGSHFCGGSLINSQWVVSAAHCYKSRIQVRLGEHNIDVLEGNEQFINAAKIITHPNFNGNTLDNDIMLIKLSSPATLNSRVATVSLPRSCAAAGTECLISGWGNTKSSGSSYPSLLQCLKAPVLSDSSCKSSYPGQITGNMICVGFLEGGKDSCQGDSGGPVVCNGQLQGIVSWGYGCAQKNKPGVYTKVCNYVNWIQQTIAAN

CAAX prenyl protease 2 [12] = target: CAAX prenyl protease 2 (Saccharomyces cerevisiae S288c, UniProt Q03530); type: biochemical
Sequence of CAAX prenyl protease 2 (Saccharomyces cerevisiae S288c, UniProt Q03530) (Q03530 whole entry): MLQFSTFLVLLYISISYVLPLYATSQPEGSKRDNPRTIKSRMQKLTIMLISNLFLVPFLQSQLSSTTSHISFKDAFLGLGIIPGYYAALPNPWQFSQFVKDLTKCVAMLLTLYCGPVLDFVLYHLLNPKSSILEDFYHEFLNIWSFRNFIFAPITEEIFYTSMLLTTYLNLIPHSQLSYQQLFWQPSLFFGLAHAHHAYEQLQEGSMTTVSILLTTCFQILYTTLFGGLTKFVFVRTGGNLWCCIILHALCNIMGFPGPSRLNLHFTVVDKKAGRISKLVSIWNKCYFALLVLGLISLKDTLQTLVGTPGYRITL

CAAX prenyl protease 2 [13] = target: CAAX prenyl protease 2 (Homo sapiens, UniProt Q9Y256); assay: human Rce1 protease inhibitors, dose response, biochemical, yeast membranes, quenched-peptide fluorescence, cherry-pick (AID 588849)
Sequence of CAAX prenyl protease 2 (Homo sapiens, UniProt Q9Y256) (Q9Y256 whole entry): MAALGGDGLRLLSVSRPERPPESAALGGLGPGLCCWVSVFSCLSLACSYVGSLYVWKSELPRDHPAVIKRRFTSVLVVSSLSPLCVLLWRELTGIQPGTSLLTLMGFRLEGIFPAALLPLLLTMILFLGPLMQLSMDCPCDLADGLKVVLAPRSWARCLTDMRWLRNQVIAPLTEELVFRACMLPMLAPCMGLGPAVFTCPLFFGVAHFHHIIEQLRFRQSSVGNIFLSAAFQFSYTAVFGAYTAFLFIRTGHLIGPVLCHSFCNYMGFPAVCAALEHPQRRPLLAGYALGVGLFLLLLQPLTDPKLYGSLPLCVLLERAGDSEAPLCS

[14] = NIH-3T3 fibroblast cytotoxicity, dose response, cytotoxicity control, cell-based, fluorescence, Alamar Blue, secondary assay (AID 2327); type: functional;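 further: NIH-3T3 mouse fibroblasts cultured with fluconazole at 8 µg/mL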
[15] = C. albicans growth with fluconazole, confirmation, fluorescence, retest (AID 2467); type: functional, cell-based
[16] = growth suppression of PTEN-null colon cells, dose response, cell-based, HCT116 PTEN knockout (AID 1047); type: functional;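 further: HCT116 colon tumor cells with PTEN knocked out; cells exposed to compound for 60 hours before readout; potency for loss of cell viability measured by luminescence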
[17] = growth suppression of beta-catenin-knockout colon cells, dose response, cell-based, HCT116, human colon tumor (AID 1045); type: functional;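 further: HCT116 colon tumor cells with beta catenin knocked out; cells exposed to compound for 60 hours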
A-375 = assay: MITF: Counter assay: A375 proliferation Measured in Cell-Based System Using Plate Reader - 2084-03_Inhibitor_Dose_DryPowder_Activity. [Related pubchem assays (depositor defined):AID488944]; type: functional; conditions: Homo sapiens
Genome polyprotein = Genome polyprotein (dengue virus type 2, UniProt P29990); assay: Dengue-2 NS5 methyltransferase inhibitors, primary screen, biochemical, confirmation dose response (AID 588689); type: functional
[18] = target: Glucose-6-phosphate 1-dehydrogenase (Homo sapiens, UniProt P11413); assay: human G6PD enzyme inhibitors, dose response, selectivity assay for P. falciparum G6PD inhibitor project, biochemical, fluorescence (AID 504792); type: functional
Vero = Vero cell cytotoxicity, cytotoxicity control for flavivirus capping enzyme inhibitors (AID 588742); type: functional; conditions: Chlorocebus sabaeus
HEK293 [19] = assay: NOD1 signaling inhibitors, primary screen, cell-based, luminescence, uHTS (AID 1578); type: functional; conditions: Homo sapiens
HEK293 [20] = assay: cells; type: functional, cell-based; conditions: Homo sapiens; remark: listed apart in the source
[21] = target: Nucleotide-binding oligomerization domain-containing protein 2 (Homo sapiens, UniProt Q9HC29); assay: NOD2 signaling inhibitors, cell-based, luminescence, uHTS, HEK293 (AID 1566); type: functional
Sequence of Nucleotide-binding oligomerization domain-containing protein 2 (Q9HC29 whole entry, the tested form may be a part): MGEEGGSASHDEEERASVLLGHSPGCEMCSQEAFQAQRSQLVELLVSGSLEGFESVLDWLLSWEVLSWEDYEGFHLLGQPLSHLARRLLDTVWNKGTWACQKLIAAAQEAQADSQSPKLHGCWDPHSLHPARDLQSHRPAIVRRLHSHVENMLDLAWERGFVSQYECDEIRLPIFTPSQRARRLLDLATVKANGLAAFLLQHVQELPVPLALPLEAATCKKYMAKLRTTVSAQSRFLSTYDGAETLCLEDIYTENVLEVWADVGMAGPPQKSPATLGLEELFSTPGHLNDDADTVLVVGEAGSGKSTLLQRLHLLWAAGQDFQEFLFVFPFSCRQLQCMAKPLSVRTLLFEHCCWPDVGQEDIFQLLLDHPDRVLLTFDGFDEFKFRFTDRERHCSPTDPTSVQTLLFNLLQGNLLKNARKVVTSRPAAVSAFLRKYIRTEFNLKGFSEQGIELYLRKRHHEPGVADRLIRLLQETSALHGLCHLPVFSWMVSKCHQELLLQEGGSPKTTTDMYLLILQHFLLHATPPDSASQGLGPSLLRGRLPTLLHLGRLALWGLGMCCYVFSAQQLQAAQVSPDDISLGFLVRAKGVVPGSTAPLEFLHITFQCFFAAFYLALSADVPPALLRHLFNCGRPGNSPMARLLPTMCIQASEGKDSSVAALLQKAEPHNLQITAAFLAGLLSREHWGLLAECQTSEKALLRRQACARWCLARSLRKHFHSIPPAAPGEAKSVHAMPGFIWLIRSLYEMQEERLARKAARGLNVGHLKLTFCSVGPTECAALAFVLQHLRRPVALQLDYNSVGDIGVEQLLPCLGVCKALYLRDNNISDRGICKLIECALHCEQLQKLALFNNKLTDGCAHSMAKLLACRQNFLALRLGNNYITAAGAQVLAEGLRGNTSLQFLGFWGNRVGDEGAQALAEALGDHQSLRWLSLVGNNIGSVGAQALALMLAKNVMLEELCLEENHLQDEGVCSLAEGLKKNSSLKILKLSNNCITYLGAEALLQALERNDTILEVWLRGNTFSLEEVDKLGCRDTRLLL

HEK293 [22] = assay: NOD2 signaling inhibitors in MDP-stimulated cells, cell-based, uHTS, luminescence (AID 2001); type: functional; conditions: Homo sapiens
[23] = target: T4, Heat shock factor protein 1 (Mus musculus, UniProt P38532); assay: inhibition of MG132-induced HSE-luciferase signal, confirmation, cell-based, NIH3T3, luminescence, dose retest (AID 2382); type: functional;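 further: NIH3T3 fibroblasts with HSF1-driven luciferase reporter stressed by proteasome inhibitor MG132; luminescence from HSF1-driven luciferase expression after 8 hours of MG132 stress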
T4 sequence (P38532 whole entry): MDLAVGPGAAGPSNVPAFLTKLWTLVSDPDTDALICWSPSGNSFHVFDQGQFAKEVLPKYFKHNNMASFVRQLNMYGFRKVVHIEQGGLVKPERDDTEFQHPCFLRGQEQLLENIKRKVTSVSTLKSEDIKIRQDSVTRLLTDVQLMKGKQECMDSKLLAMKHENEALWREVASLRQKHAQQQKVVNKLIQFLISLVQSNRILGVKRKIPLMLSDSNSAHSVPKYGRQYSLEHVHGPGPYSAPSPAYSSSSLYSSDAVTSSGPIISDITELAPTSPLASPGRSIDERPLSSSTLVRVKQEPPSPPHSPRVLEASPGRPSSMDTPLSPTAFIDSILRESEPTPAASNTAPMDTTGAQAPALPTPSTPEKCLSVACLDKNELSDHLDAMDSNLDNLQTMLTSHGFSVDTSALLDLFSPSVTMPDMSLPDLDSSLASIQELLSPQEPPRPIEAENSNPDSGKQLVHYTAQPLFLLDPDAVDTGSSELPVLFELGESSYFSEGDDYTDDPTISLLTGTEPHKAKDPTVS

HEK293 [24] = assay: cells; type: functional, cell-based; conditions: Homo sapiens; remark: listed apart in the source
[25] = target: T5, Microphthalmia-associated transcription factor (Homo sapiens, UniProt O75030); assay: TRPM1 promoter luciferase signal decrease, dose response, MITF inhibitor project, cell-based, SK-MEL-5, cherry-picked, set 3 (AID 493073); type: functional
T5 sequence (O75030 whole entry): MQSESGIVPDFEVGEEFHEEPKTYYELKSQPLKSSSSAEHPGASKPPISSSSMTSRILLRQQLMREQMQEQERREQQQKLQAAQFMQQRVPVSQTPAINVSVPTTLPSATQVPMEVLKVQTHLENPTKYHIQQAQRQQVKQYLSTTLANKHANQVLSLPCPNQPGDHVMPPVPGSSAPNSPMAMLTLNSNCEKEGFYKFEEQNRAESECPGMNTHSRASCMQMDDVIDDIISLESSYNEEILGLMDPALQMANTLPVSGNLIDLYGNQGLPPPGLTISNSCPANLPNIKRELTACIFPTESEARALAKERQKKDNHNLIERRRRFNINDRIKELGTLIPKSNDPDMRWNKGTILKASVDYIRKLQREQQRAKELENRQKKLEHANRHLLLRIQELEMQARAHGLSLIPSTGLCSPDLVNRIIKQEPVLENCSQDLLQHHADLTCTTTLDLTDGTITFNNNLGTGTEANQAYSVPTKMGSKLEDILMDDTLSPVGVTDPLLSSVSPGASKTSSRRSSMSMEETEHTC

HEK293 [26] = assay: cells; type: functional, cell-based; conditions: Homo sapiens; remark: listed apart in the source
[27] = target: Dual specificity protein phosphatase 6 (Rattus norvegicus, UniProt Q64346); type: functional;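 further: confirmatory in vitro dose-response testing of MKP-3 inhibition; recombinant His-tagged MKP-3 made in E. coli BL21 with OMFP substrate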
Sequence of Dual specificity protein phosphatase 6 (Q64346 whole entry): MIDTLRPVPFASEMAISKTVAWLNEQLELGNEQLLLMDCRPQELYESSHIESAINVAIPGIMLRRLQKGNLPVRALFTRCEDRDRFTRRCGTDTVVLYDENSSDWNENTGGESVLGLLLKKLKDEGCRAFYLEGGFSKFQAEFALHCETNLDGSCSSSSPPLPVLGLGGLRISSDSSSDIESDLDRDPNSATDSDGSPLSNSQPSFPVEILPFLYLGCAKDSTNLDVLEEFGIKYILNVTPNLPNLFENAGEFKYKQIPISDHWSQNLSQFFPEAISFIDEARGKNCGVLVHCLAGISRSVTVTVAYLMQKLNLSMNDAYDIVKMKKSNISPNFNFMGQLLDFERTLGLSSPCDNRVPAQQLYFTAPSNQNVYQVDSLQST

[28] = target: Tyrosine-protein phosphatase non-receptor type 7 (Homo sapiens, UniProt P35236); assay: redox-dependent HePTP inhibition, mechanism study, biochemical, fluorescence (AID 2068); type: functional
Sequence of Tyrosine-protein phosphatase non-receptor type 7 (P35236 whole entry): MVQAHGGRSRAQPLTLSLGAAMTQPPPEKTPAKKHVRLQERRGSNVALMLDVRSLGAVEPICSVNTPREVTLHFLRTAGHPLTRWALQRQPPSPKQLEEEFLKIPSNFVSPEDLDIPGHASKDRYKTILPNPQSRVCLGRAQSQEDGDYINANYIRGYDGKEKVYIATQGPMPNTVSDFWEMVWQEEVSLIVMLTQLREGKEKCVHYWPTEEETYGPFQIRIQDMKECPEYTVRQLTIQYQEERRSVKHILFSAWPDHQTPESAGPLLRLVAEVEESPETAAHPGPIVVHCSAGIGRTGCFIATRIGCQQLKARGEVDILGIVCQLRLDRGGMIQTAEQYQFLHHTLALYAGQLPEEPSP

O=c1c2cc(F)ccc2sn1-c1ccccc1F
IC50 [1]: 5.3 µM (active)

O=C(NCC1CCCO1)c1cccc2c1C(=O)c1ccc(N3CCC(Cc4ccccc4)CC3)cc1S2(=O)=O (configuration not stated)
AC50 [2]: 52.6 µM (active)

O=C(O)CCc1ccc(-c2cccs2)n1NC(=O)c1cccs1
AC50 [3]: 183 µM (active) | AC50 [4]: 1.55 µM (active)

CCN(Cc1cccs1)c1ncnc2ccc(-c3ccc4c(c3)OCO4)cc12
AC50 [5]: < 0.00195 µM (active)

FC(F)(F)c1nnc2ccc(NCc3cccnc3)nn12
IC50 (HEK293 [6]): 50.4 µM (inactive) | IC50 [7]: > 67.5 µM (inactive)

c1ccc(C2CN3CCSC3=N2)cc1 (configuration not stated) [TETRAMISOLE HYDROCHLORIDE]
AC50 [8]: 35.5 µM (inconclusive) | IC50 [9]: > 47.1 µM (inactive) | EC50 [10]: > 53 µM (inactive)

O=C1/C(=C\c2ccccc2)CCc2c1[nH]c1ccccc21
EC50 [11]: > 285 µM (inactive)

COC(=O)C1=CNC=C(C(=O)OC)C1c1cccc2ccccc12
AC50 (Trypsin): 80.3 µM (active) | AC50 (CAAX prenyl protease 2 [12]): 26.9 µM (active) | AC50 (CAAX prenyl protease 2 [13]): 7.98 µM (active)

CCOc1cc(/C=N/N=C(N)N)ccc1OCc1ccc(Cl)cc1
EC50 [14]: 81.2 µM (active) | EC50 [15]: > 38 µM (not active) | EC50 [16]: 3.92 µM (active) | EC50 [17]: 3.01 µM (active) | AC50 (A-375): 18 µM (active)

COc1cc(CN2CCCC(C(=O)c3ccc4c5c(cccc35)CC4)C2)cc(OC)c1O (configuration not stated)
IC50 (Genome polyprotein): 97.7 µM (active) | IC50 [18]: 24.3 µM (inactive) | CC50 (Vero): > 40 µM (active)

O=C(CCl)Nc1ccc(Sc2ccc(NC(=O)CCl)cc2)cc1
EC50 (HEK293 [19]): 10.1 µM (active) | IC50 (HEK293 [20]): > 20 µM (inactive) | EC50 [21]: 18.8 µM (active) | IC50 (HEK293 [22]): 2.71 µM (active) | EC50 [23]: 3.68 µM (active) | IC50 (HEK293 [24]): 10.2 µM (active) | AC50 [25]: 5.98 µM (active) | IC50 (HEK293 [26]): 1.62 µM (active)

CCN(CC)C(=S)c1ccc(O)c(OC)c1
IC50 [27]: > 100 µM (inactive) | IC50 [28]: 4.42 µM (active)

From ChEMBL document CHEMBL1201862, “PubChem BioAssay data set” (2004)
